# Data reported in ChEMBL document CHEMBL5532682, “Recent advances of tryptanthrin and its derivatives as potential anticancer agents” (RSC Med Chem, 2024).
# Columns and labels:
# HT-29 = test: Antiproliferative activity against human HT-29 cells; type: functional, cell-based
# PANC-1 = test: Antiproliferative activity against human PANC-1 cells; type: functional, cell-based
# MDA-MB-231 [1] = test: Antiproliferative activity against human MDA-MB-231 cells; type: functional, cell-based
# [2] = Cytotoxicity activity against human HDF cells; type: toxicity, cell-based; conditions: HDF cells (NHDF)
# A549 [3] = test: Antiproliferative activity against human A549 cells incubated by 48 hrs by MTT assay; type: functional, cell-based; conditions: A549, 48 h
# K562 = test: Antiproliferative activity against human K562 cells incubated by 48 hrs by MTT assay; type: functional, cell-based; conditions: K562, 48 h
# HepG2 = test: Antiproliferative activity against human HepG2 cells incubated by 48 hrs by MTT assay; type: functional, cell-based; conditions: HepG2, 48 h
# PC-3 = test: Antiproliferative activity against human PC-3 cells incubated by 48 hrs by MTT assay; type: functional, cell-based; conditions: PC-3, 48 h
# Hep 3B2 [4] = test: Anticancer activity against human Hep3B cells measured after 48 hrs; type: functional, cell-based
# NCI/ADR-RES = test: Growth inhibition of human MCF7ADR cells assessed as reduction in cell viability; type: functional
# U-251 = test: Growth inhibition of human U-251 cells assessed as reduction in cell viability; type: functional
# SW-620 = test: Growth inhibition of human SW620 cells assessed as reduction in cell viability; type: functional
# NCI-H522 = test: Growth inhibition of human NCI-H522 cells assessed as reduction in cell viability; type: functional
# M14 = test: Growth inhibition of human M14 cells assessed as reduction in cell viability; type: functional
# SK-OV-3 = test: Growth inhibition of human SK-OV-3 cells assessed as reduction in cell viability; type: functional
# DU-145 = test: Growth inhibition of human DU-145 cells assessed as reduction in cell viability; type: functional
# A498 = test: Growth inhibition of human A498 cells assessed as reduction in cell viability; type: functional
# MCF7 = test: Antiproliferative activity against human MCF7 cells assessed as inhibition of cell growth; type: functional, cell-based
# A549 [5] = test: Antiproliferative activity against human A549 cells assessed as inhibition of cell growth; type: functional, cell-based
# HeLa = test: Antiproliferative activity against human HeLa cells assessed as inhibition of cell growth; type: functional, cell-based
# [6] = Cytotoxicity against human HEK293 cells assessed as inhibition of cell growth; type: toxicity, cell-based
# [7] = Antiproliferative activity against mouse MC3T3-E1 cells; type: toxicity, cell-based
# A549 [8] = test: Antiproliferative activity against human A549 cells; type: functional, cell-based
# Hep 3B2 [9] = test: Antiproliferative activity against human Hep3B cells measured after 48 hrs by MTT assay; type: functional, cell-based
# A549 [10] = test: Antiproliferative activity against human A549 cells measured after 48 hrs by MTT assay; type: functional, cell-based; conditions: A549, 48 h
# HCT-116 [11] = test: Antiproliferative activity against human HCT-116 cells measured after 48 hrs by MTT assay; type: functional, cell-based; conditions: HCT-116, 48 h
# MDA-MB-231 [12] = test: Antiproliferative activity against human MDA-MB-231 cells measured after 48 hrs by MTT assay; type: functional, cell-based; conditions: MDA-MB-231, 48 h
# A549 [13] = test: Antiproliferative activity against human A549 cells measured after 48 hrs; type: functional, cell-based; conditions: A549, 48 h
# HCT-116 [14] = test: Antiproliferative activity against human HCT-116 cells measured after 48 hrs; type: functional, cell-based; conditions: HCT-116, 48 h
# MDA-MB-231 [15] = test: Antiproliferative activity against human MDA-MB-231 cells measured after 48 hrs; type: functional, cell-based; conditions: MDA-MB-231, 48 h
smiles,measurement,setting,value
Cc1nn(Br)c2c1[C@@]1(C(C#N)=CO2)c2cc(-c3cccc(Cl)c3)ccc2-n2c1nc1ccccc1c2=O,IC50,HT-29,63.8 µM
same,IC50,PANC-1,96.4 µM
same,IC50,MDA-MB-231 [1],81.3 µM
same,IC50,[2],> 100 µM
O=C1c2ccccc2-n2c1nc1ccc(F)cc1c2=O,IC50,A549 [3],2.34 µM
same,IC50,K562,6.77 µM
same,IC50,HepG2,5.63 µM
same,IC50,PC-3,9.7 µM
same,IC50,Hep 3B2 [4],> 20 µM
C[C@]1(O)c2ccccc2-n2c1nc1ccccc1c2=O,GI50,NCI/ADR-RES,> 100 µM
same,GI50,U-251,> 100 µM
same,GI50,SW-620,> 100 µM
same,GI50,NCI-H522,> 100 µM
same,GI50,M14,> 100 µM
same,GI50,SK-OV-3,> 100 µM
same,GI50,DU-145,> 100 µM
same,GI50,A498,> 100 µM
O=C1C2C=CC=CC2=NC2/C(=N\Nc3nc(-c4ccc(Cl)cc4)cs3)c3ccccc3N12 (stereo not given),IC50,MCF7,18.2 µM
same,IC50,A549 [5],11.1 µM
same,IC50,HeLa,21.7 µM
same,IC50,[6],80.9 µM
O=C1c2cc(F)ccc2-n2c1nc1ccccc1c2=O,IC50,[7],97 µM
same,IC50,A549 [8],10.9 µM
same,IC50,A549 [3],2.36 µM
same,IC50,K562,2.66 µM
same,IC50,HepG2,1.97 µM
same,IC50,PC-3,10.6 µM
same,IC50,Hep 3B2 [4],4.1 µM
O=C1c2cc(Cl)ccc2-n2c1nc1ccccc1c2=O,IC50,[7],> 100 µM
same,IC50,A549 [8],22.6 µM
same,IC50,Hep 3B2 [9],3.7 µM
same,IC50,A549 [3],4.21 µM
same,IC50,K562,3.67 µM
same,IC50,HepG2,2.95 µM
same,IC50,PC-3,8.48 µM
O=c1c2ccccc2nc2n1-c1ccccc1[C@@]2(O)OCCOc1ccccc1,GI50,NCI/ADR-RES,> 100 µM
same,GI50,U-251,> 100 µM
same,GI50,SW-620,> 100 µM
same,GI50,NCI-H522,> 100 µM
same,GI50,M14,> 100 µM
same,GI50,SK-OV-3,> 100 µM
same,GI50,DU-145,> 100 µM
same,GI50,A498,> 100 µM
Cc1ccc2c(c1)C(=O)c1nc3ccccc3c(=O)n1-2,IC50,Hep 3B2 [4],6.5 µM
O=C1c2cc(Br)ccc2-n2c1nc1ccc(F)cc1c2=O,IC50,Hep 3B2 [4],5.8 µM
O=C1c2cc(F)c(F)cc2-n2c1nc1ccccc1c2=O,IC50,A549 [3],2.15 µM
same,IC50,K562,3.31 µM
same,IC50,HepG2,9.84 µM
same,IC50,PC-3,10.4 µM
Cc1n[nH]c2c1[C@@]1(C(C#N)=C(N)O2)c2cc(-c3ccccc3)ccc2-n2c1nc1ccccc1c2=O,IC50,HT-29,97.9 µM
same,IC50,PANC-1,> 100 µM
same,IC50,MDA-MB-231 [1],72.2 µM
same,IC50,[2],> 100 µM
Cc1nn(Cl)c2c1[C@@]1(C(C#N)=C(N)O2)c2cc(-c3ccccc3)ccc2-n2c1nc1ccccc1c2=O,IC50,HT-29,> 100 µM
same,IC50,PANC-1,> 100 µM
same,IC50,MDA-MB-231 [1],62.8 µM
same,IC50,[2],> 100 µM
Nc1ccc2c(c1)C(=O)c1nc3ccccc3c(=O)n1-2,IC50,Hep 3B2 [9],5.8 µM
same,GI50,NCI/ADR-RES,1 µM
same,GI50,U-251,4.5 µM
same,GI50,SW-620,25 µM
same,GI50,NCI-H522,48 µM
same,GI50,M14,15 µM
same,GI50,SK-OV-3,25 µM
same,GI50,DU-145,8 µM
same,GI50,A498,2 µM
O=C1c2c(N3CCOCC3)cccc2-n2c1nc1ccccc1c2=O,IC50,A549 [10],13.7 µM
same,IC50,HCT-116 [11],90 µM
same,IC50,MDA-MB-231 [12],56.1 µM
same,IC50,A549 [13],> 100 µM
same,IC50,HCT-116 [14],1.62 µM
same,IC50,MDA-MB-231 [15],48.3 µM
CN(C)c1ccc2c(c1)C(=O)c1nc3ccccc3c(=O)n1-2,IC50,Hep 3B2 [9],9 µM
O=C1c2c(N3CCN(c4ccccn4)CC3)cccc2-n2c1nc1ccccc1c2=O,IC50,A549 [10],> 100 µM
same,IC50,HCT-116 [11],> 100 µM
same,IC50,MDA-MB-231 [12],> 100 µM
same,IC50,A549 [13],> 100 µM
same,IC50,HCT-116 [14],> 100 µM
same,IC50,MDA-MB-231 [15],> 100 µM
COc1cccc2c1C(=O)c1c(O)c3c(c(O)c1C2=O)C[C@@](O)(C(=O)CO)C[C@@H]3O[C@H]1C[C@H](N)[C@H](O)[C@H](C)O1 [DOXORUBICIN],IC50,Hep 3B2 [4],0.26 µM
O=C1c2cccc(F)c2-n2c1nc1ccccc1c2=O,IC50,A549 [3],6.45 µM
same,IC50,K562,3.69 µM
same,IC50,HepG2,5.89 µM
same,IC50,PC-3,7.05 µM
O=C1c2c(N3CCCCC3)cccc2-n2c1nc1ccccc1c2=O,IC50,A549 [10],> 100 µM
same,IC50,HCT-116 [11],> 100 µM
same,IC50,MDA-MB-231 [12],> 100 µM
same,IC50,A549 [13],> 100 µM
same,IC50,HCT-116 [14],> 100 µM
same,IC50,MDA-MB-231 [15],> 100 µM
O=C1c2ccccc2-n2c1nc1ccc(Br)cc1c2=O,IC50,Hep 3B2 [4],9 µM
O=c1c2ccccc2nc2n1-c1ccccc1/C2=N\OCCN1CCCC1,GI50,DU-145,2 µM
Cc1nn(Br)c2c1[C@@]1(C(C#N)=CO2)c2cc(-c3ccccc3)ccc2-n2c1nc1ccccc1c2=O,IC50,HT-29,> 100 µM
same,IC50,PANC-1,85.3 µM
same,IC50,MDA-MB-231 [1],65.4 µM
same,IC50,[2],> 100 µM
O=C1c2ccccc2-n2c1nc1cccc(F)c1c2=O,IC50,A549 [3],5.45 µM
same,IC50,K562,6.86 µM
same,IC50,HepG2,6.26 µM
same,IC50,PC-3,12.4 µM
O=C1c2cc(C(F)(F)F)ccc2-n2c1nc1ccccc1c2=O,IC50,Hep 3B2 [9],3.4 µM
O=C1c2c(ccc(F)c2N2CCN(c3ccccn3)CC2)-n2c1nc1ccccc1c2=O,IC50,A549 [10],> 100 µM
same,IC50,HCT-116 [11],> 100 µM
same,IC50,MDA-MB-231 [12],> 100 µM
same,IC50,A549 [13],> 100 µM
same,IC50,HCT-116 [14],> 100 µM
same,IC50,MDA-MB-231 [15],> 100 µM
CCCC[C@]1(O)c2ccccc2-n2c1nc1ccccc1c2=O,GI50,NCI/ADR-RES,> 100 µM
same,GI50,U-251,> 100 µM
same,GI50,SW-620,> 100 µM
same,GI50,NCI-H522,> 100 µM
same,GI50,M14,> 100 µM
same,GI50,SK-OV-3,> 100 µM
same,GI50,DU-145,> 100 µM
same,GI50,A498,> 100 µM
Cc1n[nH]c2c1[C@@]1(C(C#N)=CO2)c2cc(-c3cccc(Cl)c3)ccc2-n2c1nc1ccccc1c2=O,IC50,HT-29,98.8 µM
same,IC50,PANC-1,> 100 µM
same,IC50,MDA-MB-231 [1],52.6 µM
same,IC50,[2],> 100 µM
Cc1nn(Cl)c2c1[C@@]1(C(C#N)=C(N)O2)c2ccccc2-n2c1nc1ccccc1c2=O,IC50,HT-29,77.4 µM
same,IC50,PANC-1,49.4 µM
same,IC50,MDA-MB-231 [1],47.9 µM
same,IC50,[2],> 100 µM
Cc1nn(Br)c2c1[C@@]1(C(C#N)=C(N)O2)c2ccccc2-n2c1nc1ccccc1c2=O,IC50,HT-29,79.7 µM
same,IC50,PANC-1,48.2 µM
same,IC50,MDA-MB-231 [1],52.4 µM
same,IC50,[2],> 100 µM
O=C1c2c(ccc(F)c2N2CCN(C(=O)c3ccco3)CC2)-n2c1nc1ccccc1c2=O,IC50,A549 [10],> 100 µM
same,IC50,HCT-116 [11],> 100 µM
same,IC50,MDA-MB-231 [12],> 100 µM
same,IC50,A549 [13],> 100 µM
same,IC50,HCT-116 [14],> 100 µM
same,IC50,MDA-MB-231 [15],> 100 µM
Cc1nn(Cl)c2c1[C@@]1(C(C#N)=CO2)c2cc(-c3cccc(Cl)c3)ccc2-n2c1nc1ccccc1c2=O,IC50,HT-29,> 100 µM
same,IC50,PANC-1,60.6 µM
same,IC50,MDA-MB-231 [1],92.8 µM
same,IC50,[2],> 100 µM
C=C[C@]1(O)c2ccccc2-n2c1nc1ccccc1c2=O,GI50,NCI/ADR-RES,20 µM
same,GI50,SW-620,10 µM
same,GI50,M14,8 µM
same,GI50,SK-OV-3,6 µM
same,GI50,DU-145,10 µM
O=C1c2cc3ccccc3cc2-n2c1nc1ccccc1c2=O,GI50,NCI/ADR-RES,15 µM
same,GI50,U-251,15 µM
same,GI50,SW-620,8 µM
same,GI50,NCI-H522,50 µM
same,GI50,M14,40 µM
same,GI50,SK-OV-3,30 µM
same,GI50,DU-145,50 µM
same,GI50,A498,60 µM
O=C1c2c(ccc(F)c2N2CCN(CCO)CC2)-n2c1nc1ccccc1c2=O,IC50,A549 [10],41.4 µM
same,IC50,HCT-116 [11],> 100 µM
same,IC50,MDA-MB-231 [12],> 100 µM
same,IC50,A549 [13],41.4 µM
same,IC50,HCT-116 [14],> 100 µM
same,IC50,MDA-MB-231 [15],> 100 µM
Cc1n[nH]c2c1[C@@]1(C(C#N)=C(N)O2)c2ccccc2-n2c1nc1ccccc1c2=O,IC50,HT-29,90.4 µM
same,IC50,PANC-1,21.4 µM
same,IC50,MDA-MB-231 [1],60.8 µM
same,IC50,[2],> 100 µM
